One test addresses TRPV1 (Mus musculus, UniProt Q704Y3). Briefly: Resiniferatoxin pretreatment: heat sensitivity, imiquimod-induced scratches, TLR7+ skin fibers. The format is in vivo, mice. On the set-up: central terminals of TRPV1-expressing nociceptors; from tissue; host or cells: mouse lumbar spinal cord slices (L4-L5); live mice (intrathecal capsaicin, resiniferatoxin pretreatment). From the text: C-fibers, express transient receptor potential subtype V1 (TRPV1) and are indispensable for itch sensation by various pruritogens (Imamachi, N. et al. Proc. Natl. Acad. Sci. U.S. A 106, 11330-11335 (2009)). […] Thus, TRPV1-expressing C-fibers but not TRPV1 per se are required for imiquimod-elicited itch. We also tested itch responses in mast cell-deficient SASH mice (Liu, Q. et al. Cell 139, 1353-1365 (2009)) and only found a moderate reduction (28%) in imiquimod-induced scratching (FIG. 12c).

A further test has as its system DRG neurons. The test is described as follows: Calcium imaging from cultured DRG neurons. The format is cell-based. The following applies: wild-type mice DRG neurons. How it is done:
DRGs from all spinal levels of 4-week old mice were collected in cold DH10 (90% DMEM/F-12, 10% FBS, 100 U/ml penicillin, and 100 μg/ml Streptomycin, Gibco) and treated with enzyme solution (5 mg/ml Dispase, 1 mg/ml Collagenase Type I in HPBS without Ca^++ and Mg^++, Gibco) at 37° C. Following trituration and centrifugation, cells were resuspended in DH10, plated on glass cover slips coated with poly-D-lysine (0.5 mg/ml, Stoughton, Mass.) and laminin (10 μg/ml, Invitrogen), cultured in an incubator ([…] and 5% CO2) at 37° C. and used within 24 hours. Neurons were loaded with Fura 2-acetomethoxy ester (Molecular Probes) for 30 min in the dark at room temperature. After washing, cells were imaged at 340 and 380 nm excitation to detect intracellular free calcium. To compare the response to histamine, chloroquine, and capsaicin between WT and Tlr3-deficient DRG neurons, calcium imaging assays were performed with an experimenter blind to genotype (n=3 per genotype), and the percentages of DRG neurons showing calcium responses were determined as we previously described (23).

The test system of test [1] is TLR7. The test is described as follows: Scratches after intradermal injection in the nape of the neck, WT and Tlr7-/- mice. The format is in vivo. Conditions: for dose response curve of scratching: intradermal injection, nape. From the text:
We next evaluated whether TLR7 plays a role in itch sensation. We counted the number of scratches (bouts) by a hindpaw of mouse following intradermal injection of pruritogenic agents in the nape of the neck.

Test [2] has as its target T1, TLR7 (Mus musculus, UniProt P58681).
T1 construct: We found functional TLR7 receptors in small-size DRG neurons; from tissue; host or cells: small DRG neurons of mice; nape and cheek skin of live mice (C57BL/6J background, CD1)
T1 sequence (P58681 27-1050): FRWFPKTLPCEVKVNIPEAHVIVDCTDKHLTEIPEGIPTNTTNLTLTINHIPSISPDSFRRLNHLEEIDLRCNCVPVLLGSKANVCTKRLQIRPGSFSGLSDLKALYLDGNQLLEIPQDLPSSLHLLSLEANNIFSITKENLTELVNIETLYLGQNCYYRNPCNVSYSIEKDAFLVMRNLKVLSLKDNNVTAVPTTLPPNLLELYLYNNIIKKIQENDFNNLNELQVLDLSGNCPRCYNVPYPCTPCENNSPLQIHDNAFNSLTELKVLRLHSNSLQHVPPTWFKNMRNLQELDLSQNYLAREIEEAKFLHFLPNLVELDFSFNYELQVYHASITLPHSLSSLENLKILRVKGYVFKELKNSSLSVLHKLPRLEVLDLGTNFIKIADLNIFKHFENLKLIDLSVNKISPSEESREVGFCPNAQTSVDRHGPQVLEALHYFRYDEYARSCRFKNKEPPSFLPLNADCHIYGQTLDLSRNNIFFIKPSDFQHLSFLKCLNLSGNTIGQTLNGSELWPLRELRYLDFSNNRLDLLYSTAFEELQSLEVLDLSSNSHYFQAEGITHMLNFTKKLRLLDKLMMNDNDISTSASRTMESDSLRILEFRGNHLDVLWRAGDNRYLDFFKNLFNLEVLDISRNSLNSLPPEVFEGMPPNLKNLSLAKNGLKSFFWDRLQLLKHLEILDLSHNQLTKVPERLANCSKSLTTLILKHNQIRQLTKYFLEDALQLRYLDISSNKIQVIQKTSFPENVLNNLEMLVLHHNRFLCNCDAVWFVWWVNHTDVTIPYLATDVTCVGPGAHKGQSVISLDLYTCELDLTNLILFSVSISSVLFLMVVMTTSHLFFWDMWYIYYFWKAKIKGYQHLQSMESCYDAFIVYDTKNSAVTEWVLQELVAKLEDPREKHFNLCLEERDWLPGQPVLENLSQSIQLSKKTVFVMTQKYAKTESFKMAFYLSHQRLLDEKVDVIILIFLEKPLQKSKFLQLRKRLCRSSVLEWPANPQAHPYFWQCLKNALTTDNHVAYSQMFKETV
The test is described as follows: Cheek model of itch versus pain, TLR7 ligands. The following applies: 20 μg intradermal into the cheek. The format is in vivo, mice. As for the experimental part: To distinguish itch and pain responses simultaneously, we used the cheek model by injection of chemical into cheek of mice (8). After brief anesthesia with isoflurane, we shaved mice on cheeks (approx. 5×8 mm area) two days before experiments. On the day of experiment, we injected 10 μl of reagent (50 μg compound 48/80 or 100 μg chloroquine) into the cheek and counted the number of wipes and the number of scratches for 30 min. We only counted those unilateral wipes with the forelimb that were not part of grooming behavior. One scratch was defined as a lifting of the hind paw toward the injection site on the cheek and then returning the paw to the floor or to the mouth.
To further investigate a unique role of TLR7 in itch versus pain, we used a recently developed “cheek model” of itch (Shimada, S. G. & LaMotte, R. H. Pain 139, 681-687 (2008)).

TRPV1, sequence (Q704Y3 whole entry): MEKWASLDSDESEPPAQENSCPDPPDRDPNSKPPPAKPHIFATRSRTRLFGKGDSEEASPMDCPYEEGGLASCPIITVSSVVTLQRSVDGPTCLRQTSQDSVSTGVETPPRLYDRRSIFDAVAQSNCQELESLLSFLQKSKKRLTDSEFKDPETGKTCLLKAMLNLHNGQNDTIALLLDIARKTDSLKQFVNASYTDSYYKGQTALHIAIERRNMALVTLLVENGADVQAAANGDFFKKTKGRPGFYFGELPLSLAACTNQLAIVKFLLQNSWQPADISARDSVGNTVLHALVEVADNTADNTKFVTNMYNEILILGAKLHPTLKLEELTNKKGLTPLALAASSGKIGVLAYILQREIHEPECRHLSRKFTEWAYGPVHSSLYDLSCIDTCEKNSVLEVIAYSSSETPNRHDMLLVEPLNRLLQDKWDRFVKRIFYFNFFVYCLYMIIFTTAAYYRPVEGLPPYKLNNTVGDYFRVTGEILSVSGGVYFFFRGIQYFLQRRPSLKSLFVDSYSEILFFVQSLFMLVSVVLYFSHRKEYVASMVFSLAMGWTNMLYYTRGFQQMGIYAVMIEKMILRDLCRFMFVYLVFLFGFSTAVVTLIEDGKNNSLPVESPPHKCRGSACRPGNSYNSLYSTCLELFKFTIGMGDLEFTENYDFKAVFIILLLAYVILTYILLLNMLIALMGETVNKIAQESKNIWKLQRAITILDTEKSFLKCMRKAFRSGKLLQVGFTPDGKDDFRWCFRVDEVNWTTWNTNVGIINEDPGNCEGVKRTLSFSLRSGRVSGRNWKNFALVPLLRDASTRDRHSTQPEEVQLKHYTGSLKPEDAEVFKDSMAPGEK

On to `C=C(C)[C@]12C[C@@H](C)[C@@]34O[C@](Cc5ccccc5)(O[C@@H]1[C@@H]3C=C(COC(=O)Cc1ccc(O)c(OC)c1)C[C@]1(O)C(=O)C(C)=C[C@@H]41)O2` [RTX, resiniferatoxin], for which, at TRPV1 (RTX pretreatment), the “heat sensitivity after pretreatment” value is recorded as “loss of heat sensitivity” and the “imiquimod-induced scratches after pretreatment” value is “almost abolished”. Moreover, the “TLR7+ fibers in the skin” value on TRPV1 (RTX treatment) was “ablated”.

Take `CCN(CC)CCCC(C)Nc1ccnc2cc(Cl)ccc12` (centres unmarked) [chloroquine]: the “neurons with intracellular Ca2+ increases” value with DRG neurons is 5%. Also, the “TLR7 dependence of scratching at the highest dose” value in the test with TLR7 [1] (600 μg) is “TLR7-independent”. In addition, the “dose response curve of scratching” value with TLR7 [1] is listed as “bell-shaped dose response curve”.

As for `C=CCn1c(=O)n([C@@H]2O[C@H](CO)[C@@H](O)[C@H]2O)c2nc(N)[nH]c(=O)c21` [loxoribine], the “dose response curve of scratching” value in the test on TLR7 [1] is given as “inverted-U-shaped dose response curve”. The “scratches in Tlr7-/- mice versus WT” value with TLR7 [1] (intradermal, 100 μg) is given as “reduced”. For the same compound, at TLR7 [2], the “itch-like scratching in cheek model” value is listed as “elicited itch-like scratching” and the “pain-indicative wiping in cheek model” value is on record as “not pain-indicative wiping behavior”.

Consider `NCCc1c[nH]cn1` [histamine], for which, in the test with DRG neurons, the “neurons with intracellular Ca2+ increases” value stood at 10%.
